The values below come from patent US10570431B2, “Compositions comprising a polypeptide having cellulolytic enhancing activity and a heterocyclic compound and uses thereof” (priority 2013, dated 2020).

Like-named read-outs stand apart in the source and are kept apart here. Bounds are passed on as bounds.

Holding throughout (assay type): biochemical
For data set [1], the system named is Trichoderma reesei cellulase composition. The experiment in a line: Hydrolysis of AVICEL (microcrystalline cellulose) by the T. reesei cellulase composition, with/without GH61 polypeptide or heterocyclic compound. As to conditions: for heterocyclic compound effect(no GH61) (ratio of percent conversion with compound to without) / heterocyclic compound effect(no GH61): AVICEL; for Percent conversion of AVICEL: GH61 present, no heterocyclic compound, one experiment.

For data set [2] the test system is unchanged. The following applies: milled washed PCS, no GH61.
For data set [3] the test system is unchanged. The following applies: milled unwashed PCS, compound 5 mM, no GH61.
Setting [4] is: compound 10 mM, cellulase 2 mg per g cellulose, especially at day 3.
The mark [5] stands for this setting: 1 day, 13.7±0.6% in the absence of GH61.
The mark [6] stands for this setting: 3 days, 28.6±0.4% in the absence of GH61.
Where [7] appears, read: 7 days, 44±1% in the absence of GH61.

Turning to `Cc1cc(O)no1` [3-hydroxy-5-methylisoxazole], the “heterocyclic compound effect(no GH61) (ratio of percent conversion with compound to without)” value in data set [1] (compound 5 mM, 1, 3 and 7 days) is around 1.
As to `O=C1O[C@H](CO)[C@@H](O)[C@H]1O` [ribonic γ-lactone], in data set [1] (compound 5 mM, 1, 3 and 7 days), the “heterocyclic compound effect(no GH61) (ratio of percent conversion with compound to without)” value was “less than 1”.
For the molecule `O=Cc1ccc(CO)o1` [5-(hydroxymethyl)furfural], in data set [1] (compound 1 mM, 1, 3 and 7 days), the “heterocyclic compound effect(no GH61)” value is listed as “greater than 1”.
In the case of `O=C1O[C@H](CO)[C@H](O)[C@H]1O` [D-xylonic γ-lactone], the “heterocyclic compound effect(no GH61)” value in data set [1] (compound 5 mM, day 1 or 7) is recorded as around 1.
For the molecule `CC1=C(O)C(=O)CO1` [4-hydroxy-5-methyl-3-furanone], the “heterocyclic compound effect(no GH61)” value in data set [2] (setting [4]) is recorded as below 1.
Take `O=CC(=O)C[C@H](O)[C@H](O)CO` [3-deoxyglucosone, 3-deoxy-D-erythro-hexosulose]: the “heterocyclic compound effect(no GH61) (ratio of percent conversion with compound to without)” value in data set [1] (compound 5 mM, 1, 3 and 7 days) is around 1.
Same read-out and setting: with `OC[C@H]1OC=C[C@@H](O)[C@@H]1O` [D-glucal, 1,5-anhydro-2-deoxy-D-arabino-hex-1-enitol] the entry was “less than 1”.
Regarding `O=C1OC(C(O)CO)C(=O)C1=O` (stereo not drawn) [dehydroascorbic acid, [1,2-dihydroxyethyl]furan-2,3,4(5H)-trione], the “heterocyclic compound effect(no GH61) (ratio of percent conversion with compound to without)” value in data set [1] (compound 5 mM, 1, 3 and 7 days) is on record as “very slightly decreased”. For the same molecule, the “heterocyclic compound effect(no GH61)” value in data set [1] (compound 10 mM, 1 and 3 days) was “very slightly decreased the day 3 hydrolysis”; in data set [3] (mid to late stages of hydrolysis) it was “greater than 1”; in data set [2] (compound 5 mM, 1, 3 and 7 days), “very slightly decreased”; in data set [2] (setting [4]), below 1.
For the molecule `O=C(CO)c1ccccc1` [2-hydroxyacetophenone], in data set [1] (compound 5 mM, 1, 3 and 7 days), the “heterocyclic compound effect(no GH61) (ratio of percent conversion with compound to without)” value was “less than 1”. The “heterocyclic compound effect(no GH61)” value in data set [1] (compound 10 mM, 1 and 3 days) was “significantly decreased the day 3 hydrolysis”; in data set [3] (cellulase 2 mg per g cellulose, 1, 3 and 7 days), “greater than 1”; in data set [2] (compound 5 mM, 1, 3 and 7 days), “slightly decreased”.
Consider `O=c1cc(O)c2ccccc2o1` [4-hydroxycoumarin], for which, in data set [1] (compound 1 mM, 1, 3 and 7 days), the “heterocyclic compound effect(no GH61)” value is listed as “very slightly decreased”.
On to `C=C(C)CO` [2-methyl-2-propen-1-ol], for which the “heterocyclic compound effect(no GH61) (ratio of percent conversion with compound to without)” value in data set [1] (compound 5 mM, 1, 3 and 7 days) is “decreased later stages of hydrolysis”.

B1: Penicillium pinophilum GH61A polypeptide: GH61A polypeptide having cellulolytic enhancing activity (SEQ ID NO: 32), recombinantly prepared using Aspergillus oryzae HowB101 as a host (protein, listed as Penicillium pinophilum)
chain: MPSTKVAALSAVLALASTVAGHGFVQNIVIDGKSYSGYLVNQFPYESNPPAVIGWATTATDLGFVAPSEYTNADIICHKNATPGALSAPVAAGGTVELQWTTWPDSHHGPVISYLANCNGNCSTVDKTKLDFVKIDQGGLIDDTTPPGTWASDKLIAANNSWTVTIPSTIAPGNYVLRHEIIALHSAGNADGAQNYPQCINLEITGSGTAAPSGTAGEKLYTSTDPGILVNIYQSLSTYVIPGPTLWSGAANGAVATGSATAVATTATASATATPTTLVTSVAPASSTFATAVVTTVAPAVTDVVTVTDVVTVTTVITTTVL
Regarding B1, the figures for the “Percent conversion of AVICEL” value in data set [1] (setting [5]), in data set [1] (setting [6]) and in data set [1] (setting [7]) were 14.1±0.4%, 28.5±0.5% and 46±2%, respectively.

B2: Talaromyces stipitatus GH61A polypeptide: GH61A polypeptide having cellulolytic enhancing activity (SEQ ID NO: 164), recombinantly prepared as described in Example 3 (protein, listed as Talaromyces stipitatus)
chain: MPSTKVAALSAVLALASTVAGHGFVQNIVIDGKSYTGYLVNQYPYQSNPPAVIGWSTTATDLGFVDGSGYTNPDIICHKNAKPGQLSAPVAAGGKVELEWTTWPESHHGPVISYLANCNGDCTTVDKTKLEFVKIDQRGLIDDSNPPGTWAADQLIAANNSWTVTIPESIAPGNYVLRHEIIALHSANNATGAQNYPQCINLQITGSGTANPSGTPGEKLYTPTDPGILVNIYQSLSSYVIPGPTLWSGAAAHVVATAAGSATGVASATATPTTLVTAVSSPTGAPSVVTPEAPSVTSFAPVVTVTDVVTVTTVITTTIS
Consider B2, for which the “Percent conversion of AVICEL” value was 13.6±0.4% in data set [1] (setting [5]), 27.9±0.2% in data set [1] (setting [6]) and 44.7±0.5% in data set [1] (setting [7]).

B3: Thielavia terrestris GH61E polypeptide: GH61E polypeptide having cellulolytic enhancing activity (SEQ ID NO: 8), recombinantly prepared using Trichoderma reesei RutC30 as a host (protein, listed as Thielavia terrestris)
chain: MLANGAIVFLAAALGVSGHYTWPRVNDGADWQQVRKADNWQDNGYVGDVTSPQIRCFQATPSPAPSVLNTTAGSTVTYWANPDVYHPGPVQFYMARVPDGEDINSWNGDGAVWFKVYEDHPTFGAQLTWPSTGKSSFAVPIPPCIKSGYYLLRAEQIGLHVAQSVGGAQFYISCAQLSVTGGGSTEPPNKVAFPGAYSATDPGILINIYYPVPTSYQNPGPAVFSC
On to B3, for which the “Percent conversion of AVICEL” value in data set [1] (1 day, 19.5±0.2% in the absence of GH61) stood at 20.5±0.5%; in data set [1] (3 days, 27±1% in the absence of GH61) it was 27±1%; in data set [1] (7 days, 43±1% in the absence of GH61) it was 43.0±0.3%.

B4: Aspergillus fumigatus GH61B polypeptide: GH61 polypeptide having cellulolytic enhancing activity (SEQ ID NO: 30), recombinantly prepared using Aspergillus oryzae JaL355 as a host (protein, listed as Aspergillus fumigatus)
chain: MTLSKITSIAGLLASASLVAGHGFVSGIVADGKYYGGYLVNQYPYMSNPPDTIAWSTTATDLGFVDGTGYQSPDIICHRDAKNGKLTATVAAGSQIEFQWTTWPESHHGPLITYLAPCNGDCATVDKTTLKFVKIAAQGLIDGSNPPGVWADDEMIANNNTATVTIPASYAPGNYVLRHEIIALHSAGNLNGAQNYPQCFNIQITGGGSAQGSGTAGTSLYKNTDPGIKFDIYSDLSGGYPIPGPALFNA
Regarding B4, the “Percent conversion of AVICEL” value was 13.6±0.2% in data set [1] (setting [5]), 29±1% in data set [1] (setting [6]) and 46±2% in data set [1] (setting [7]).

B5: Trichoderma reesei GH61B polypeptide: GH61B polypeptide having cellulolytic enhancing activity (SEQ ID NO: 16), recombinantly prepared using Aspergillus oryzae JaL250 as a host (protein, listed as Trichoderma reesei)
chain: MKSCAILAALGCLAGSVLGHGQVQNFTINGQYNQGFILDYYYQKQNTGHFPNVAGWYAEDLDLGFISPDQYTTPDIVCHKNAAPGAISATAAAGSNIVFQWGPGVWPHPYGPIVTYVVECSGSCTTVNKNNLRWVKIQEAGINYNTQVWAQQDLINQGNKWTVKIPSSLRPGNYVFRHELLAAHGASSANGMQNYPQCVNIAVTGSGTKALPAGTPATQLYKPTDPGILFNPYTTITSYTIPGPALWQG
For the molecule B5, the “Percent conversion of AVICEL” value in data set [1] (setting [5]) turned out to be 13.5±0.4%; in data set [1] (setting [6]), 29±2%; in data set [1] (setting [7]) it was 44±2%.
